In the data set the test system is CCRIS mutagenicity, Ames/micronucleus/aberration tests. The data set can be described thus: CCRIS mutagenicity studies.

SMILES strings stand for the structures. Activity calls are given as the source filed them. How the calls were made is not given here.

For the molecule `CCCCN[N+](=O)[O-]`, the mutagenic call (Test System: E. COLI, Strain/Indicator: WP2 (HCR-), Metabolic Activation: NONE) was “active; positive”.
Regarding `O=c1c(O)c(-c2ccc(O)c(O)c2)oc2cc(O)cc(O)c12`, the mutagenic call (End Point: IN VIVO MICRONUCLEUS, Test System: BONE MARROW POLYCHROMATIC ERYTHROCYTES, Species: MOUSE, Strain/Sex: DDY/MALE, Route: IP) was “inactive; negative”; the mutagenic call (End Point: In vivo micronucleus, Test System: Bone marrow polychromatic erythrocytes, Species: Rat, Strain/Sex: Wistar/Male, Route: Oral (gavage)) was “inactive; negative”; the mutagenic call (Test System: AMES SALMONELLA TYPHIMURIUM, Strain/Indicator: TA97, Metabolic Activation: NONE, Method: STANDARD PLATE) was “active; positive”; the mutagenic call (Test System: AMES SALMONELLA TYPHIMURIUM, Strain/Indicator: TA97A, Metabolic Activation: NONE, Method: STANDARD PLATE) is “active; positive”; the mutagenic call (Test System: AMES SALMONELLA TYPHIMURIUM, Strain/Indicator: TA97A, Metabolic Activation: RAT, LIVER, S9, AROCLOR 1254, Method: STANDARD PLATE) is “active; positive”; the mutagenic call (Test System: AMES SALMONELLA TYPHIMURIUM, Strain/Indicator: TA98, Metabolic Activation: HAMSTER, LIVER, S9, AROCLOR 1254 (30%), Method: PREINCUBATION) was “active; positive”. In addition, the mutagenic call is “active; positive” (Test System: AMES SALMONELLA TYPHIMURIUM, Strain/Indicator: TA98, Metabolic Activation: NONE, Method: FLUCTUATION (MICROTITER)); “active; positive” (Test System: AMES SALMONELLA TYPHIMURIUM, Strain/Indicator: TA98, Metabolic Activation: NONE, Method: PREINCUBATION); “active; positive” (Test System: AMES SALMONELLA TYPHIMURIUM, Strain/Indicator: TA98, Metabolic Activation: NONE, Method: STANDARD PLATE); “active; positive” (Test System: AMES SALMONELLA TYPHIMURIUM, Strain/Indicator: TA98, Metabolic Activation: RAT, LIVER, CYTOSOL, Method: PREINCUBATION); “active; positive” (Test System: AMES SALMONELLA TYPHIMURIUM, Strain/Indicator: TA98, Metabolic Activation: RAT, LIVER, S9, 5,6-BENZOFLAVONE AND/OR SODIUM PHENOBARBITAL, Method: PREINCUBATION); “active; positive” (Test System: AMES SALMONELLA TYPHIMURIUM, Strain/Indicator: TA98, Metabolic Activation: RAT, LIVER, S9, AROCLOR 1254 (30%), Method: PREINCUBATION). Moreover, the mutagenic call by setting is: (Test System: AMES SALMONELLA TYPHIMURIUM, Strain/Indicator: TA98, Metabolic Activation: RAT, LIVER, S-9, PHENOBARBITAL, Method: STANDARD PLATE) “active; positive”; (Test System: AMES SALMONELLA TYPHIMURIUM, Strain/Indicator: TA98, Metabolic Activation: S9, GLUCOSE-6-PHOSPHATE AND NADP, Method: STANDARD PLATE) “active; positive”; (Test System: AMES SALMONELLA TYPHIMURIUM, Strain/Indicator: TA98, Metabolic Activation: S9, Method: STANDARD PLATE) “active; positive”; (Test System: AMES SALMONELLA TYPHIMURIUM, Strain/Indicator: TA98, Metabolic Activation: S-100, GLUCOSE-6-PHOSPHATE AND NADP, Method: STANDARD PLATE) “active; positive”; (Test System: AMES SALMONELLA TYPHIMURIUM, Strain/Indicator: TA98, Metabolic Activation: S-100, Method: STANDARD PLATE) “active; positive”; (Test System: AMES SALMONELLA TYPHIMURIUM, Strain/Indicator: TA100, Metabolic Activation: HAMSTER, LIVER, S9, AROCLOR 1254 (30%), Method: PREINCUBATION) “active; positive”. Further, the mutagenic call (Test System: AMES SALMONELLA TYPHIMURIUM, Strain/Indicator: TA100, Metabolic Activation: NONE, Method: PREINCUBATION) is “active; positive”; the mutagenic call (Test System: AMES SALMONELLA TYPHIMURIUM, Strain/Indicator: TA100, Metabolic Activation: NONE, Method: STANDARD PLATE) is “active; positive”; the mutagenic call (Test System: AMES SALMONELLA TYPHIMURIUM, Strain/Indicator: TA100, Metabolic Activation: RAT, LIVER, S9, AROCLOR 1254 (30%), Method: PREINCUBATION) was “active; positive”; the mutagenic call (Test System: AMES SALMONELLA TYPHIMURIUM, Strain/Indicator: TA100, Metabolic Activation: RAT, LIVER, S-9, PHENOBARBITAL, Method: STANDARD PLATE) was “active; positive”; the mutagenic call (Test System: AMES SALMONELLA TYPHIMURIUM, Strain/Indicator: TA102, Metabolic Activation: RAT, LIVER, S9, AROCLOR 1254, Method: STANDARD PLATE) is “active; positive”; the mutagenic call (Test System: AMES SALMONELLA TYPHIMURIUM, Strain/Indicator: TA1535, Metabolic Activation: NONE, Method: STANDARD PLATE) is “inactive; negative”. The mutagenic call was “active; positive” (Test System: AMES SALMONELLA TYPHIMURIUM, Strain/Indicator: TA1537, Metabolic Activation: NONE, Method: FLUCTUATION (MICROTITER)); “active; positive” (Test System: AMES SALMONELLA TYPHIMURIUM, Strain/Indicator: TA1538, Metabolic Activation: NONE, Method: STANDARD PLATE); “inactive; negative” (Test System: AMES SALMONELLA TYPHIMURIUM, Strain/Indicator: TA7001, Metabolic Activation: NONE, Method: FLUCTUATION (MICROTITER)); “active; positive” (Test System: AMES SALMONELLA TYPHIMURIUM, Strain/Indicator: TA7002, Metabolic Activation: NONE, Method: FLUCTUATION (MICROTITER)); “inactive; negative” (Test System: AMES SALMONELLA TYPHIMURIUM, Strain/Indicator: TA7003, Metabolic Activation: NONE, Method: FLUCTUATION (MICROTITER)); “active; positive” (Test System: AMES SALMONELLA TYPHIMURIUM, Strain/Indicator: TA7004, Metabolic Activation: NONE, Method: FLUCTUATION (MICROTITER)). Besides, the mutagenic call by setting is: (Test System: AMES SALMONELLA TYPHIMURIUM, Strain/Indicator: TA7005, Metabolic Activation: NONE, Method: FLUCTUATION (MICROTITER)) “active; positive”; (Test System: AMES SALMONELLA TYPHIMURIUM, Strain/Indicator: TA7006, Metabolic Activation: NONE, Method: FLUCTUATION (MICROTITER)) “inactive; negative”; (Test System: Ames Salmonella typhimurium, Strain/Indicator: TA98, Metabolic Activation: None, Method: Standard plate) “active; positive”; (Test System: Ames Salmonella typhimurium, Strain/Indicator: TA98, Metabolic Activation: Rat, Liver, S9, Aroclor 1254, Method: Standard plate) “active; positive”; (Test System: Ames Salmonella typhimurium, Strain/Indicator: TA100, Metabolic Activation: None, Method: Standard plate) “active; positive”; (Test System: Ames Salmonella typhimurium, Strain/Indicator: TA100, Metabolic Activation: Rat, Liver, S9, Aroclor 1254, Method: Standard plate) “active; positive”. Also, the mutagenic call is, setting by setting: (Test System: Ames Salmonella typhimurium, Strain/Indicator: TA102, Metabolic Activation: Fe ++ (1 uM) with NADPH generating system, Method: Preincubation) “active; positive”; (Test System: Ames Salmonella typhimurium, Strain/Indicator: TA102, Metabolic Activation: None, Method: Preincubation) “active; positive”; (Test System: Ames Salmonella typhimurium, Strain/Indicator: TA102, Metabolic Activation: Rat, Liver, S9, Aroclor 1254, Method: Preincubation) “active; positive”; (Test System: Ames Salmonella typhimurium, Strain/Indicator: TA102, Metabolic Activation: Rat, Liver, S-9, Aroclor 1254 in 0.154 M KCl, Method: Preincubation) “active; positive”; (Test System: E. coli, Strain/Indicator: WP2 uvrA, Metabolic Activation: Fe ++ (1 uM) with NADPH generating system, Method: Preincubation) “active; positive”; (Test System: E. coli, Strain/Indicator: WP2 uvrA, Metabolic Activation: None, Method: Preincubation) “active; positive”. In addition, the mutagenic call runs as follows: (Test System: E. coli, Strain/Indicator: WP2 uvrA, Metabolic Activation: Rat, Liver, S9, Aroclor 1254, Method: Preincubation) “active; positive”; (Test System: UDS RAT GASTRIC MUCOSAL CELLS, Strain/Indicator: THY INCORP, Metabolic Activation: NONE, Method: LIQUID SCINTILLATION COUNTING) “inactive; negative”; (Test System: UDS Rat hepatocytes, Strain/Indicator: Wistar (Male and female), Method: Autoradiography) “inactive; negative”.
